Here are results for 17 compounds from ChEMBL document CHEMBL4732252, “Generating Selective Leads for Mer Kinase Inhibitors-Example of a Comprehensive Lead-Generation Strategy” (J Med Chem, 2021).

Data set [1] concerns the target T1, Tyrosine-protein kinase receptor TYRO3 (Homo sapiens, UniProt Q06418).
T1 sequence (Q06418 whole entry): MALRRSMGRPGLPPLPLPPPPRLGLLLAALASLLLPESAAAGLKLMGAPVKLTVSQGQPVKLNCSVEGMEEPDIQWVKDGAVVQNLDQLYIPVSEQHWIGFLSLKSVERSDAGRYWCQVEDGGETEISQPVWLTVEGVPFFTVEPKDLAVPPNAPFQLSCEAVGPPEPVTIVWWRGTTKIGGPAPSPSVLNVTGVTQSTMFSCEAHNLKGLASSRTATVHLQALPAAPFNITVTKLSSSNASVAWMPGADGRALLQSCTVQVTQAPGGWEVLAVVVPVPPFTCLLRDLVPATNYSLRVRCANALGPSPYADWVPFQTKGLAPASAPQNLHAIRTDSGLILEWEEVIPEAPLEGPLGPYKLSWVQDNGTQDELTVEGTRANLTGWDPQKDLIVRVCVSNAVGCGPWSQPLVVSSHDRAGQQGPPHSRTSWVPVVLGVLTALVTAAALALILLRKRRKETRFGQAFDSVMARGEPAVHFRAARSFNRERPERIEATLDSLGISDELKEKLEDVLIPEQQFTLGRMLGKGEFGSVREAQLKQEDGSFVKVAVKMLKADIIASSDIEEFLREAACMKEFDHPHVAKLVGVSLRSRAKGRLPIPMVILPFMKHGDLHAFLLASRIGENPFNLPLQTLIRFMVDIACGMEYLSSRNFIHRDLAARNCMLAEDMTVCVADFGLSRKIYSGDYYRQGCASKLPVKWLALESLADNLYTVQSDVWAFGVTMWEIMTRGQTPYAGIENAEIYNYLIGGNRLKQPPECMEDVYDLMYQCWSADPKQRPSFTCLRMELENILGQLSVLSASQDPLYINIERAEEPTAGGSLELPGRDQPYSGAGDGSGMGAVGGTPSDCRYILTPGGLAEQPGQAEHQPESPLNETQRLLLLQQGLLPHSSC
Kind of data set: Inhibition of GST-tagged Tyro3 (unknown origin) (453 to 890 residues) using Axltide (KKSRGDYMTMQIG-acid) peptide as substrate preincubated for 30 mins followed by substrate and ATP addition at Km concentration measured after 180 mins by RapidFire LC-MS analysis.

In data set [2] the target is T2, Receptor-type tyrosine-protein kinase FLT3 (Homo sapiens, UniProt P36888).
T2 sequence (P36888 whole entry): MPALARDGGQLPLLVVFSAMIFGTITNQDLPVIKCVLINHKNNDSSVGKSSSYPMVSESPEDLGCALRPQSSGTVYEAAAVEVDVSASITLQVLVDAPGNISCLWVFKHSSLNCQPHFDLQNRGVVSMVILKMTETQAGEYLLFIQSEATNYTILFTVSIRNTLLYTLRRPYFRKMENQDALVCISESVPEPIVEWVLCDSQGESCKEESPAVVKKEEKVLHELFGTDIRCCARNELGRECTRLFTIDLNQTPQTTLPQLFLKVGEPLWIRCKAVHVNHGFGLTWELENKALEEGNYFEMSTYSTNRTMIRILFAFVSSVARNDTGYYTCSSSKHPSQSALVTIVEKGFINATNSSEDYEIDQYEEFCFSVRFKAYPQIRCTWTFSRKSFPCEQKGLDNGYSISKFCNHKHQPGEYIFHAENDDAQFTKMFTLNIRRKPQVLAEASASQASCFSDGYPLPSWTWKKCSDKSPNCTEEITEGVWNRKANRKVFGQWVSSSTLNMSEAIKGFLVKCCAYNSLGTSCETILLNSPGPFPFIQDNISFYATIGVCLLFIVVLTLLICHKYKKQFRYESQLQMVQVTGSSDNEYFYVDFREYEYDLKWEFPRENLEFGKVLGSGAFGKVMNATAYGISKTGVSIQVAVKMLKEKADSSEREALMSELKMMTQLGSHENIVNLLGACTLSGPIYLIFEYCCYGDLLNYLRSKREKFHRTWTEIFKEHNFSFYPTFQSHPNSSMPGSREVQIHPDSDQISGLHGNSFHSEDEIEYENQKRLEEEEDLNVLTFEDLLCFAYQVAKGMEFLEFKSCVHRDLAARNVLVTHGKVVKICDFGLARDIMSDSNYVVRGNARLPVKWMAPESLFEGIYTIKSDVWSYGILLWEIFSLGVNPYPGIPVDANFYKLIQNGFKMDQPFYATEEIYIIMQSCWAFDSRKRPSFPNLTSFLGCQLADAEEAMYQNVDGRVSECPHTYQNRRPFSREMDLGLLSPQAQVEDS
As to the kind of experiment: Inhibition of His6/TEV fused-GST-tagged Flt3 (unknown origin) (H564 to S993 residues) using Axltide (CKKSRGDYMTMQJ-acid) peptide as substrate preincubated for 30 mins followed by substrate and ATP addition at Km concentration measured after 75 mins by RapidFire LC-MS analysis.

Data set [3] is described as follows: Intrinsic clearance in rat hepatocytes assessed per 10^6 cells. Type of data set: ADME, cell-based, Hepatocyte. Conditions: read-out: CLH.
A short description of data set [4]: Intrinsic clearance in human liver microsomes. Conditions: read-out: CLH. It counts as ADME, Microsome. (In general: Microsomes from liver hold many membrane-bound enzymes, among them those of drug oxidation.)

Where only a bound is given, the exact number is not on record here.

`CNC(=O)C[C@@H](NC(=O)[C@@H](CCc1ccccc1)NC(=O)c1c(C)noc1-c1snnc1C)c1ccc(C(F)(F)F)cc1`: the IC50 in data set [1] is 0.0316 µM; in data set [2] it was > 100 µM. For the same compound, the hepatocyte CLint in data set [3] stood at 260 µL/min/1e6 cells. The microsomal CLint in data set [4] is > 300 µL/min/mg.
Taken in the same sequence, the figures for `CNC(=O)c1sc(N2CC3CC2(CNC(=O)c2c[nH]c4ncc(Cl)cc24)C3)nc1C(F)(F)F` were 0.631 µM, 1.58 µM, 120 µL/min/1e6 cells and > 300 µL/min/mg.
On the same counts, the results for `COc1cc2ncnc(Nc3cnc(OCCC4CC4)nc3)c2cc1OCC1CCNCC1` are 2 µM, > 50.1 µM, 3 µL/min/1e6 cells and < 3 µL/min/mg.
On the same counts, the results for `CN(Cc1ccc2nccn2c1)c1nnc(-c2ccc(OC3CCCC3)cc2)o1` are 79.4 µM, 20 µM, 52 µL/min/1e6 cells and 150 µL/min/mg.
Take `CN(Cc1ccc2nccn2c1)c1nnc(-c2ccc(-c3ccccc3Cl)nc2)o1`: the IC50 in data set [1] is 20 µM; in data set [2], 15.8 µM. For the same compound, the hepatocyte CLint in data set [3] is 16 µL/min/1e6 cells. Also, in data set [4], the microsomal CLint was determined as 92 µL/min/mg.
Taken in the same sequence, the figures for `CNc1nc(OCC2CCC2)nc2c1ncn2Cc1c(F)cccc1F` were 3.16 µM, > 50.1 µM, 160 µL/min/1e6 cells and > 270 µL/min/mg.
On the same counts, the results for `Cc1cc(N(C)C)ccc1-c1nnc(N(C)Cc2ccc3nccn3c2)o1` are > 100 µM, 31.6 µM, 44 µL/min/1e6 cells and 55 µL/min/mg.
Taken in the same sequence, the figures for `CCn1c(-c2nnc(N(C)Cc3ccc4nccn4c3)o2)nc2ccccc21` were 39.8 µM, 6.31 µM, 22 µL/min/1e6 cells and 55 µL/min/mg.
As for `CNC(=O)c1sc(N2CC3CC2(CNC(=O)c2c[nH]c4ncc(C)cc24)C3)nc1C(F)(F)F`, the 50% inhibitory concentration (IC50) in data set [1] is 1 µM; in data set [2], 1.58 µM. Also, the hepatocyte CLint in data set [3] turned out to be 92 µL/min/1e6 cells. Further, the microsomal CLint in data set [4] is > 270 µL/min/mg.
Take `CNC(=O)c1sc(N2CC3CC2(CNC(=O)c2c[nH]c4ncc(C(F)(F)F)cc24)C3)nc1C(F)(F)F`: the IC50 in data set [1] and in data set [2] was > 100 µM each time. Moreover, the hepatocyte CLint in data set [3] is 78 µL/min/1e6 cells. Also, in data set [4], the microsomal CLint worked out at 130 µL/min/mg.
As to `CN(Cc1ccc2nccn2c1)c1nnc(-c2ccc(-c3ccccc3Cl)cc2)o1`, the half-maximal inhibitory concentration (IC50) was 10 µM in data set [1] and 15.8 µM in data set [2]. The hepatocyte CLint in data set [3] worked out at 21 µL/min/1e6 cells. In addition, the microsomal CLint in data set [4] turned out to be 46 µL/min/mg.
On the same counts, the results for `C[C@@H]1CN(c2cnc(Nc3cc(F)c(OCC4CC4)c(F)c3)nc2NC2CCOCC2)CCN1` are 0.251 µM, 10 µM, < 2.4 µL/min/1e6 cells and < 3 µL/min/mg.
Take `CN(Cc1ccc2c(c1)CCCO2)c1nnc(-c2ccc(-c3ccccc3Cl)cc2)o1`: the IC50 in data set [1] and in data set [2] was > 100 µM each time. In addition, the hepatocyte CLint in data set [3] amounted to 19 µL/min/1e6 cells. Moreover, the microsomal CLint in data set [4] was determined as 19 µL/min/mg.
As for `CN(Cc1ccc2nccn2c1)c1nnc(-c2ncc(C(F)(F)F)cc2Cl)o1`, the IC50 in data set [1] and in data set [2] was > 100 µM in each case. For the same compound, the hepatocyte CLint in data set [3] amounted to 6 µL/min/1e6 cells. The microsomal CLint in data set [4] was found to be 11 µL/min/mg.
In the case of `Cc1c(C(=O)Nc2ccc(Oc3ccnc4[nH]cc(-c5ccccc5)c34)c(F)c2)c(=O)n(-c2ccc(F)cc2)n1C`, the 50% inhibitory concentration (IC50) is 0.01 µM in data set [1] and 0.0631 µM in data set [2]. Besides, in data set [3], the hepatocyte CLint worked out at 210 µL/min/1e6 cells. In addition, the microsomal CLint in data set [4] was 16 µL/min/mg.
Taken in the same sequence, the figures for `O=S(=O)(c1ccc(Nc2ncc(N3CCOCC3)c(Nc3ccccc3)n2)cc1)N1CCCCC1` were 6.31 µM, > 39.8 µM, 88 µL/min/1e6 cells and 190 µL/min/mg.
`CNC(=O)c1sc(N2CC3CC2(CNC(=O)c2c[nH]c4ncccc24)C3)nc1C(F)(F)F`: the IC50 in data set [1] is 2 µM; in data set [2] it was 5.01 µM. Further, in data set [3], the hepatocyte CLint came to 33 µL/min/1e6 cells. In data set [4], the microsomal CLint came to 200 µL/min/mg.

Usually IC50 stands for the midpoint of a concentration-inhibition curve. A lower IC50 goes with higher potency.
